Source: patent US20220153734A1, “Pyrazolopyridine Compounds For IRE1 Inhibition” (Optikira, LLC, priority 2019, published 2022)

What was measured:
[1] = molecular target: T1, IRE1α (Homo sapiens, UniProt O75460); assay: Biochemical assay: inhibition of RNase activity of IRE1α; conditions: enzyme 0.325 nM, substrate 100 nM, 20 minutes
T1 construct: purchased Signal Chem E31-11G
Method in brief: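 Recombinant IRE1α (0.325 nM final) pre-incubated 30 min at room temperature with compounds (10-point ½-log series, duplicate, 4% DMSO final). Then 100 nM fluorophore/quencher-labelled RNA substrate added in 50 mM Tris, 0.5 mM MgCl2, 10 mM KCl, 2 mM DTT. Urea stop after 20 min; fluorescence read; IC50 from sigmoidal fit.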

[2] = test system: ARPE-19 cells stably expressing XBP1 (a.a. 1-376); assay: Cellular XBP1 splicing assay (NanoLuc luciferase, thapsigargin); assay type: cell-based; conditions: Homo sapiens, ARPE-19, 4 h, thapsigargin 150 nM
Method in brief: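 ARPE-19 cells carrying an XBP1(1-376)-NanoLuc splicing reporter were pretreated with compound (10-point ½-log series, 0.117% DMSO) for 30 min, then stressed with 150 nM thapsigargin for 4 h at 37° C. Luminescence was read, and IC50 values came from sigmoidal fits of percent inhibition of control.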

[3] = molecular target: T1, IRE1α; assay: Biochemical assay to detect inhibition of kinase activity of IRE1α (ADP-Glo)
Procedure: Biochemical Assays to Detect Inhibition of Kinase Activity of IRE1α
The kinase reactions were performed in 384 well white ProxiPlate-384 Plus plates (PERKIN Elmer 6008280) using 25 mM MOPS assay buffer with 1 mM dithiothreitol, 25 mM MgCl2, 12.5 mM β-glycerophosphate, 5 mM EGTA, and 50 μg/mL BSA. Test compounds were prepared on the day of assay and dispensed using D300 digital dispenser as a 10-point ½ log dilution series in duplicate, normalized to a final DMSO concentration of 3%. Test compounds were pre-incubated for 30 min at room temperature with 10 nM IRE1α kinase (E31-11G from Signal Chem) in 2.5 μL of assay buffer and the reaction started by addition of 2.5 μL of ATP in assay buffer, to give a final ATP concentration of 100 μM and 5 nM IRE1α kinase. After 4 hours incubation at room temperature the reactions were stopped and the kinase activity determined using the ADP-Glo™ reagent from Promega, according to the manufacturer's instructions. Luminescence was measured on a luminometer (EnVision, PerkinElmer) and IC50 values calculated by fitting a sigmoidal curve to percent inhibition of control versus Log10 of compound concentration.

T1 sequence (O75460 468-977 limits assumed): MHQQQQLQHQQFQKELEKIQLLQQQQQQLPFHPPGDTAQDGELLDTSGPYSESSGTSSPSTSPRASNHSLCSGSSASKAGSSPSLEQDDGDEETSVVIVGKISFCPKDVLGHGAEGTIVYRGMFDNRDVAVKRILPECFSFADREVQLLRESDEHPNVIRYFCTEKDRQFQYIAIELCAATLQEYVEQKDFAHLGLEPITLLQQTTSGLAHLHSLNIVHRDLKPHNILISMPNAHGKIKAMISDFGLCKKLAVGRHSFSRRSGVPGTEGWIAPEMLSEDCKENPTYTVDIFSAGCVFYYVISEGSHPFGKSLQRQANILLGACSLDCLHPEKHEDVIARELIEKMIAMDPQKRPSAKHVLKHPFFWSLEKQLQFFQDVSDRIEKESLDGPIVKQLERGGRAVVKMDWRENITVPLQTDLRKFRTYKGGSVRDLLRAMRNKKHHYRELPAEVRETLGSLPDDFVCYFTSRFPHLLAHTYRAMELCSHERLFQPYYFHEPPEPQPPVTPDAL

Compound | IC50 [1] [nM] | IC50 [2] [nM] | IC50 [3] [nM]
CC(C)n1nc(-c2ccc(NS(=O)(=O)Cc3ccccc3Cl)c(F)c2)c2c(N)ncc([C@H]3CC[C@H](N(C)C)CC3)c21 [Compound A51, N-(4-(4-amino-7-((1r,4r)-4-(dimethylamino)cyclohexyl)-1-isopropyl-1H-pyrazolo[4,3-c]pyridin-3-yl)-2-difluorophenyl)-1-(2-chlorophenyl)methanesulfonamide] | 0.5 | 2 | 2.7
CCn1nc(-c2ccc(NS(=O)(=O)c3ccccc3Cl)c(F)c2)c2c(N)ncc([C@H]3CC[C@H](NC4COC4)CC3)c21 [Compound A52, N-(4-(4-amino-1-ethyl-7-((1r,4r)-4-(oxetan-3-ylamino)cyclohexyl)-1H-pyrazolo[4,3-c]pyridin-3-yl)-2-fluorophenyl)-2-chlorobenzenesulfonamide] | 6.1 | 15 | 4.6
CCn1nc(-c2ccc(NS(=O)(=O)Cc3ccccc3F)c(F)c2)c2c(N)ncc([C@H]3CC[C@H](NC4COC4)CC3)c21 [Compound A53, N-(4-(4-amino-1-ethyl-7-((1r,4r)-4-(oxetan-3-ylamino)cyclohexyl)-1H-pyrazolo[4,3-c]pyridin-3-yl)-2-fluorophenyl)-1-(2-fluorophenyl)methanesulfonamide] | 1.5 | 9.2 | 1.9
CC(C)n1nc(-c2ccc(NS(=O)(=O)Cc3ccccc3F)c(F)c2)c2c(N)ncc([C@H]3CC[C@H](NC4COC4)CC3)c21 [Compound A57, N-(4-(4-amino-1-isopropyl-7-((1r,4r)-4-(oxetan-3-ylamino)cyclohexyl)-1H-pyrazolo[4,3-c]pyridin-3-yl)-2-fluorophenyl)-1-(2-fluorophenyl)methanesulfonamide] | 0.4 | 2.5 | 0.9
